For orientation: EC50 means the midpoint of the concentration-response curve. The low end stands for greater potency, the high end for weaker potency.

Results on 1 molecule are retold here after publication PMC12562668, “Targeting NFAT2 for Reversing the P-gp-Mediated Multidrug Resistance to Paclitaxel by Manidipine” (Cancers, 2025).

One assay has as its target T1, P-glycoprotein (P-gp) (Homo sapiens, UniProt P08183).
T1 construct: gene ABCB1
The assay is described as follows: Pgp-Glo P-gp ATPase assay: stimulation of basal activity; also inhibition of verapamil-stimulated activity. It is filed as biochemical.

In another assay the target is T2, NFAT2 (Homo sapiens, UniProt O95644).
T2 construct: gene NFATC1
T2 sequence (O95644 1-943): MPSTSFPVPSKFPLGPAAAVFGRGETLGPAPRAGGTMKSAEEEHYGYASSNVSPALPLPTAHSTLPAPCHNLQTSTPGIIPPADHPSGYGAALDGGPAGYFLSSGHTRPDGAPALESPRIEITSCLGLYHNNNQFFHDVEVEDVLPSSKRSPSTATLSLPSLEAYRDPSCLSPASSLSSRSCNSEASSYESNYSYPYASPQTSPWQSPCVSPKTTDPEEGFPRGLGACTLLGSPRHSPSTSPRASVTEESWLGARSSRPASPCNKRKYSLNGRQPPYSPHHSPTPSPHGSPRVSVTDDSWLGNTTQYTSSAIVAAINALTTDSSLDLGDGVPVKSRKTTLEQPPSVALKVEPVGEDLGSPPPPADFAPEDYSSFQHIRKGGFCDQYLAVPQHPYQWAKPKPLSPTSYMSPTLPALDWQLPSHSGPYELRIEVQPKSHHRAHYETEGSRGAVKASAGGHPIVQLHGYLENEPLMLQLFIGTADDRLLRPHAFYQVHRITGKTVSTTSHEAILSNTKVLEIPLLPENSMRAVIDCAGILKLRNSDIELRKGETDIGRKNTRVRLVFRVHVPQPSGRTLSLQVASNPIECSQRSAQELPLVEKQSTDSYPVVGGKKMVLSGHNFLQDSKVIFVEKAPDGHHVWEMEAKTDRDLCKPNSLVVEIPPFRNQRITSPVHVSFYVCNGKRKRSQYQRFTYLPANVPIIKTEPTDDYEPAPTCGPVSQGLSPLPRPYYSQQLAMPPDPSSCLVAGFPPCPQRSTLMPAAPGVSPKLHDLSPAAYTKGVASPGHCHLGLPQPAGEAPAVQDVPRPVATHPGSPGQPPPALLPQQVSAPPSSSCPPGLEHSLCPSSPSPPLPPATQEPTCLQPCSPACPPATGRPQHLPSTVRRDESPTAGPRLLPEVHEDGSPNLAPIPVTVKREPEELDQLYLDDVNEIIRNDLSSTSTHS
Briefly: DARTS in A549/T cell lysate with NFAT2 immunoblot. It is filed as cell-based.

T1 sequence (P08183 whole entry): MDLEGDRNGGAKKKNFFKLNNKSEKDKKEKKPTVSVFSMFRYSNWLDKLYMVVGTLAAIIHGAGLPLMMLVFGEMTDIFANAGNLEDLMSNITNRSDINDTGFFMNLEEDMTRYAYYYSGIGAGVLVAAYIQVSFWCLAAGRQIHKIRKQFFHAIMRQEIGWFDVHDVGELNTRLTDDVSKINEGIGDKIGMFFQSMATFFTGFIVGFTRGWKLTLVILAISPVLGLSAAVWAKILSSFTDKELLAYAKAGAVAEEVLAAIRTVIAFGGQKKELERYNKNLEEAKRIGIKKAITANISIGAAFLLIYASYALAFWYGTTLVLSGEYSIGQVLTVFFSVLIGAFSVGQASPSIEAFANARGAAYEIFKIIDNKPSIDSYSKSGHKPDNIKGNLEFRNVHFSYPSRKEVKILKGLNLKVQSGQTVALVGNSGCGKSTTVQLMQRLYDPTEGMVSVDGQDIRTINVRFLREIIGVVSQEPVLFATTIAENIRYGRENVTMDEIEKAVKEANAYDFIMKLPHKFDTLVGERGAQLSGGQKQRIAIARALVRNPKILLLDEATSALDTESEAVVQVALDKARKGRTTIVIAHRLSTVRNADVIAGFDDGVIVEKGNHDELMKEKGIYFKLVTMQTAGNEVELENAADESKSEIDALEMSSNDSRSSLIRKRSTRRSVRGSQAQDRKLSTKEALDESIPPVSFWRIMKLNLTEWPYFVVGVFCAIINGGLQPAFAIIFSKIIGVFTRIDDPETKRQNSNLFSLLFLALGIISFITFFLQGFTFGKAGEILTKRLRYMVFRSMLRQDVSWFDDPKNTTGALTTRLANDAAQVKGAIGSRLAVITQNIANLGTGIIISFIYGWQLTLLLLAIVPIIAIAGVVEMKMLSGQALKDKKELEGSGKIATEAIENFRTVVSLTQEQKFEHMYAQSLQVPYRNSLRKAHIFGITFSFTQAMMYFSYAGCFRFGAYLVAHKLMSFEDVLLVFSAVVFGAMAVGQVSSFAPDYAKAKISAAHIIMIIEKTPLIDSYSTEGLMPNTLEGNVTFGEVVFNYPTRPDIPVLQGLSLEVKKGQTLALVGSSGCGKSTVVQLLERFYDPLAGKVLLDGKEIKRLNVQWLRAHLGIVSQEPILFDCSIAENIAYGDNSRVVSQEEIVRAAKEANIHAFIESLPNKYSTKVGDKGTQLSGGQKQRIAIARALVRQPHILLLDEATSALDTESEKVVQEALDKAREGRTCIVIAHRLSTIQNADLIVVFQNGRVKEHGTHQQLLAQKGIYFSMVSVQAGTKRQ

Molecule `COC(=O)C1=C(C)NC(C)=C(C(=O)OCCN2CCN(C(c3ccccc3)c3ccccc3)CC2)C1c1cccc([N+](=O)[O-])c1` (centres unmarked) [MA, manidipine] gave an EC50 on P-glycoprotein (P-gp) of 4.16 µM. Besides, the “DARTS in A549/T cell lysate with NFAT2 immunoblot” value at NFAT2 was “MA effectively protected the NFAT2 protein from proteolysis (Figure 7F,G), thereby indicating that MA is a ligand of NFAT2”.
